# According to US20240342066A1, “HIGH POTENCY EMULSIONS” (Vertosa Inc., priority 0001, published 2024):
# Test system: skin
# Assay: Patch test for skin irritation and allergy
# Assay type: in vivo, human
# Conditions: positive control
# Description: These three emulsions were first evaluated for skin irritation and allergy studies using a patch test at a third-party skin care evaluation lab. The three pure emulsion formulas were tested at 20 mg/mL concentration on the patch on 55 subjects.
# The patches were prepared with each of the 3 different emulsion types separately. Each emulsion was prepared at 20 mg/g. The test was focused on the effects of the emulsion without the influence of any other skin care ingredients. The goal was to stress test if pure emulsion can cause any skin irritation. […]
# Below is the procedure of the patch test: • Step 1: Subjects were requested to bathe or wash as usual before arrival at the facility. • Step 2: Patches containing the test material were then affixed directly to the skin of the intrascapular regions of the back, to the right or left of the midline, and subjects were dismissed with instructions not to wet or expose the test area to direct sunlight. • Step 3: Patches remained in place for 48 hours after the first application. […] Test sites were evaluated by trained laboratory personnel 48 and 96 hours after application. • Step 7: In the event of an adverse reaction, the area of erythema and edema were measured. […]
compound,measurement,value
"CCCCCCCCCCCCOS(=O)(=O)[O-].[Na+] [2.0% Sodium Lauryl Sulfate Solution, Sodium Lauryl Sulfate]",subjects with a Grade 1 reaction,8 subjects
